The results in this text go back to publication PMC10997755, “Discovery of a small-molecule inhibitor that traps Polθ on DNA and synergizes with PARP inhibitors” (Nature Communications, 2024).

The target in test [1] is T1, Polθ-pol (Homo sapiens, UniProt O75417).
T1 construct: purified recombinant human Polθ-pol (comprising amino acid residues 1792–2590); made in house
T1 sequence (O75417 1792-2590): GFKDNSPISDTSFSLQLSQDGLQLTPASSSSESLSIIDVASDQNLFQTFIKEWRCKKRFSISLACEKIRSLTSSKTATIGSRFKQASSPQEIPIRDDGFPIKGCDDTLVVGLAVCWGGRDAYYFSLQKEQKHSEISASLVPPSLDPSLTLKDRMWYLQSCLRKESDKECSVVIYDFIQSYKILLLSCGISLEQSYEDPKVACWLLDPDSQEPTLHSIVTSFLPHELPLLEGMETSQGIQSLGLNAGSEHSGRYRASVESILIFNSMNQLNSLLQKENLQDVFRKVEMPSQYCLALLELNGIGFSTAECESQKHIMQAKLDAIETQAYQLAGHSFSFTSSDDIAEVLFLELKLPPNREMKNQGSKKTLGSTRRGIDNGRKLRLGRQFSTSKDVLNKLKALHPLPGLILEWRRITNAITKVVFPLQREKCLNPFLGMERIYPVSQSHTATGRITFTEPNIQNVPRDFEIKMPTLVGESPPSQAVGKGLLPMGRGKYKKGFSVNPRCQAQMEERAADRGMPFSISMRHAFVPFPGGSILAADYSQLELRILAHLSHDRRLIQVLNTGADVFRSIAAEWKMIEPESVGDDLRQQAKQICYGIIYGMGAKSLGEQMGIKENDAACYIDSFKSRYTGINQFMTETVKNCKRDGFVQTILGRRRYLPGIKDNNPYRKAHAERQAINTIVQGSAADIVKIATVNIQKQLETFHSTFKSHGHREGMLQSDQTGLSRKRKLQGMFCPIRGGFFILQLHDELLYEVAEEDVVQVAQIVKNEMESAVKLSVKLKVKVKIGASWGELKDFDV
Briefly: Cy5 fluorescence Polθ-pol DNA synthesis (strand displacement) IC50 assay. In kind it is biochemical. Conditions: 5 nM PolQ, 18 min. As for the experimental part: The following Cy5 fluorescence assay was used to measure the ability of compounds to inhibit Polθ-pol in vitro. The fluorescent based assay was performed as follows: 60 nM of the pre-annealed primer-template containing a 5’ Cy5 fluorophore conjugated template strand (RP486-Cy5), a downstream complementary oligo conjugated with a 3’ Iowa BlackReg Dark quencher (RP343BHQRQ) and a primer strand (RP469D) was mixed with 50 uM 2'-deoxyribonucleoside triphosphates (dNTPs), 0.1 mg/mL Bovine serum albumin (BSA), 0.01% NP-40, 10% glycerol, 1 mM dithiothreitol (DTT), 10 mM MgCl2, 25 mM TrisHCl pH 7.8 in the presence of 2.5% DMSO with or without various concentrations (7-point dilution series) of Polθ-pol small-molecule inhibitors at 37 °C in a volume of 40 μL. The reactions were initiated by the addition of 5 nM of purified recombinant human Polθ-pol (comprising amino acid residues 1792–2590). The reactions were terminated by the addition of 20 mM EDTA after 18 min, and the Cy5 fluorescence intensity was measured using a CLARIOstar (BMG Labtech) plate reader. Reactions were performed in triplicate and the % inhibition at each concentration of the respective compound of Formula I was based on the mean.

Test [2] deals with DLD1 BRCA2 -/- cells. Briefly: Clonogenic assay. In kind it is cell-based. Conditions: for average / percent suvival / replicate counts: vehicle, DLD1-BRCA2 null cells. How it is done: (§1) Cells were plated on six or twelve or twenty-four well plates. In six well plate, 1000 cells/ well of BRCA2 -/-, BRCA1 -/-, PALB2 mut and 500 cells/ well of wildtype pair was plated; In twelve well plate, 600 cells/ well of BRCA2 -/-, BRCA1 -/-, PALB2 mut and 400 cells/ well of wildtype pair was plated; In twenty-four well plate, 500 cells/ well of BRCA2 -/-, BRCA1 -/-, PALB2 mut and 300 cells/ well of wildtype pair was plated. For MEFs, 300 cells per well in six-well plate were seeded. The medium was replaced every 2 days until the colonies were ready for staining in 10–12 days. For staining: Medium was removed from plates, and cells were rinsed with PBS. Fixation was carried out with—Water: Ethanol: Acetic acid (5:4:1) for 30 min followed by staining of colonies with 0.5% crystal violet in Water: Ethanol (3:2) for 2 h at room temperature. The plates were rinsed with water and left for drying overnight at room temperature. Colonies were then counted and IC50 was calculated using results from 3 or more independent experiments. Response curves are shown as mean colony formation +/- S.E.M.
(§2) Data are expressed as mean ± SEM from at least 3 independent experiments with triplicates for each condition unless stated otherwise. When conducting comparison between two groups, two-tailed unpaired t-test was used. Significance was assumed at p < 0.05. Asterisks in the figures indicate significance, ^∗p < 0.05, ^∗∗p < 0.01, ^∗∗∗p < 0.001. Combenefit® software version 2.021 was used to perform synergy analyses for drug combinations between RTx-161 and PARPi. GraphPad Prism 9 software was used to calculate IC50.

For test [3], the system named is DLD1 Parental cells. Briefly: Clonogenic assay. The class given is cell-based. Conditions: Olaparib 1 μM, BRCA2-WT. How it is done:
as §1

Test [4] relates to MDA-MB-231 cells. Briefly: Clonogenic assay. Conditions: Fig. 2f, vehicle (Rtx-161 zero). The class given is cell-based. As for the experimental part: as §1, §2
Test [5] can be described thus: Clonogenic assay, OLA with or without RTX-161 (Fig. 2 a; cell line not given). Conditions: vehicle, single experiments. The class given is cell-based.

Where “and” joins values, the source holds several entries; their conditions need not be identical. Equal values may be shown once. Entries after “also recorded” stand apart in the source; their conditions may differ.

ART-558: the “raw signal, Trial 1-3” value in test [1] (0.0016 μM compound, 60 nM 469D/343-BHQRQ/486-Cy5 DNA) was 191.03 and 186.60 and 188.77; in test [1] (0.0049 μM compound, 60 nM DNA) it was 171.92 and 173.21 and 159.20; in test [1] (0.0148 μM compound, 60 nM DNA), 136.44 and 129.18 and 136.16; in test [1] (0.0444 μM compound, 60 nM DNA), 107.36 and 98.15 and 102.46; in test [1] (0.1333 μM compound, 60 nM DNA) it was 85.13 and 86.41 and 81.22; in test [1] (0.4000 μM compound, 60 nM DNA), 77.91 and 78.16 and 79.89. Also, the “% Activity, Average” value is 85.90% in test [1] (0.0016 μM compound, 60 nM DNA); 70.18% in test [1] (0.0049 μM compound, 60 nM DNA); 44.31% in test [1] (0.0148 μM compound, 60 nM DNA); 20.55% in test [1] (0.0444 μM compound, 60 nM DNA); 6.69% in test [1] (0.1333 μM compound, 60 nM DNA); 2.48% in test [1] (0.4000 μM compound, 60 nM DNA). The “% Activity, Trial 1-3” value is 80.91% and 85.80% and 91.00% in test [1] (0.0016 μM compound, 60 nM DNA); 67.33% and 75.35% and 67.85% in test [1] (0.0049 μM compound, 60 nM DNA); 42.11% and 41.00% and 49.82% in test [1] (0.0148 μM compound, 60 nM DNA); 21.44% and 16.79% and 23.44% in test [1] (0.0444 μM compound, 60 nM DNA); 5.64% and 7.63% and 6.80% in test [1] (0.1333 μM compound, 60 nM DNA); 0.51% and 1.19% and 5.76% in test [1] (0.4000 μM compound, 60 nM DNA). Besides, the “% Inhibition, Average” value in test [1] (0.0016 μM compound, 60 nM DNA) turned out to be 14.10%; in test [1] (0.0049 μM compound, 60 nM DNA) it was 29.82%; in test [1] (0.0148 μM compound, 60 nM DNA) it was 55.69%; in test [1] (0.0444 μM compound, 60 nM DNA), 79.45%; in test [1] (0.1333 μM compound, 60 nM DNA) it was 93.31%; in test [1] (0.4000 μM compound, 60 nM DNA), 97.52%. Moreover, the “raw signal, Average” value is 188.80 in test [1] (0.0016 μM compound, 60 nM DNA); 168.11 in test [1] (0.0049 μM compound, 60 nM DNA); 133.93 in test [1] (0.0148 μM compound, 60 nM DNA); 102.66 in test [1] (0.0444 μM compound, 60 nM DNA); 84.25 in test [1] (0.1333 μM compound, 60 nM DNA); 78.65 in test [1] (0.4000 μM compound, 60 nM DNA). Besides, the “% Inhibition, Trial 1-3” value was 32.67% and 24.65% and 32.15% in test [1] (0.0049 μM compound, 60 nM DNA); 57.89% and 59.00% and 50.18% in test [1] (0.0148 μM compound, 60 nM DNA); 78.56% and 83.21% and 76.56% in test [1] (0.0444 μM compound, 60 nM DNA); 94.36% and 92.37% and 93.20% in test [1] (0.1333 μM compound, 60 nM DNA); 99.49% and 98.81% and 94.24% in test [1] (0.4000 μM compound, 60 nM DNA).
With `O=C(c1cc(Cc2n[nH]c(=O)c3ccccc23)ccc1F)N1CCN(C(=O)C2CC2)CC1` [Olaparib, reference compound], the Average (colonies) is recorded as 0 in test [2] (Olaparib 1 μM, BRCA2-NULL) and 102.667 in test [3]. For the same compound, the Percent survival in test [2] (Olaparib 1 μM, BRCA2-NULL) is 0; in test [3], 99.6764. Besides, in test [2] (colony survival, versus BRCA2-WT), the “selective killing / synthetic lethality in BRCA2-null DLD1 cells” value is “selective killing; also recorded: induction of synthetic lethality”.
`Cn1ncnc1[C@H]1c2n[nH]c(=O)c3cc(F)cc(c23)N[C@@H]1c1ccc(F)cc1` [Talazoparib]: the percent suvival turned out to be 83.7456% in test [4] (Talazoparib 12.5 nano M, experiment block 1 (c0-c7)); 90.5063% in test [4] (Talazoparib 12.5 nano M, experiment block 2 (c8-c15)); 79.3478% in test [4] (Talazoparib 12.5 nano M, experiment block 3 (c16-c23)); 72.4382% in test [4] (Talazoparib 25 nano M, experiment block 1 (c0-c7)); 53.1646% in test [4] (Talazoparib 25 nano M, experiment block 2 (c8-c15)); 57.0652% in test [4] (Talazoparib 25 nano M, experiment block 3 (c16-c23)). Also, the percent suvival in test [4] (Talazoparib 50 nano M, experiment block 1 (c0-c7)) was found to be 24.735%; in test [4] (Talazoparib 50 nano M, experiment block 2 (c8-c15)) it was 34.1772%; in test [4] (Talazoparib 50 nano M, experiment block 3 (c16-c23)) it was 30.9783%.
Turning to `O=C(c1cc(Cc2n[nH]c(=O)c3ccccc23)ccc1F)N1CCN(C(=O)C2CC2)CC1` [OLA], the average is 100 in test [2] (OLA 3.125 nano M); 86 in test [2] (OLA 6.25 nano M); 68.3333 in test [2] (OLA 12.50 nano M); 45.6667 in test [2] (OLA 25.00 nano M); 38 in test [2] (OLA 50.00 nano M); 20.3333 in test [2] (OLA 100.00 nano M). Further, the percent suvival in test [2] (OLA 3.125 nano M) was determined as 96.463%; in test [2] (OLA 6.25 nano M) it was 82.9582%; in test [2] (OLA 12.50 nano M) it was 65.9164%; in test [2] (OLA 25.00 nano M) it was 44.0514%; in test [2] (OLA 50.00 nano M), 36.6559%; in test [2] (OLA 100.00 nano M), 19.6141%. For the same compound, the percent suvival is 98.3333% in test [5] (OLA 0.125 nano M); 90.8333% and 74.269% and 96.7105% in test [5] (OLA 0.25 nano M); 67.8363% and 93.4211% and 71.6667% in test [5] (OLA 0.5 nano M); 43.3333% and 47.9532% and 73.6842% in test [5] (OLA 1 nano M); 35% and 27.4854% and 32.2368% in test [5] (OLA 2 nano M); 17.5% and 9.357% and 9.868% in test [5] (OLA 4 nano M). Besides, the replicate counts in test [2] (OLA 3.125 nano M) is 99 and 93 and 108; in test [2] (OLA 6.25 nano M), 84 and 95 and 79; in test [2] (OLA 12.50 nano M), 64 and 72 and 69; in test [2] (OLA 25.00 nano M), 49 and 40 and 48; in test [2] (OLA 50.00 nano M) it was 37 and 42 and 35; in test [2] (OLA 100.00 nano M), 24 and 18 and 19.
